According to patent US20100055032A1, “METHODS FOR […] IMAGING USING NANOP[…] AGENTS” (NanoScan Imaging LLC, priority 2001, published 2010):

Test: CT evaluation of initial uptake and vascular distribution of PH-50 in normal rabbits
Assay type: in vivo, New Zealand white rabbits
Details: for Percent Uptake (%) Aorta / Percent Uptake (%) Brain / Percent Uptake (%) Cardiac / Percent Uptake (%) Liver / Percent Uptake (%) Portal Vein / Percent Uptake (%) Posterior Vena Cava: pre-treatment = 0
Experimental: One (1) mL of PH-50 injected as a bolus intravenously (IV) via the jugular vein (n=2); and three (3) mL with a five (5) minute infusion via IV by way of the jugular vein (n=2); using the criteria set forth below in Table 1:
The animals were anesthetized via mask using Isoflorene® prior to each study and maintained under anesthesia during CT scan procedures. The animals were recovered and were mobile and allowed to drink up to the 8 hour study. Digital Subtraction Angiography (DSA) was performed during initial injection (one IV bolus and one infusion), then each rabbit was immediately moved to CT. The CT was performed after the initial injection (one IV bolus and one infusion).
All CT imaging was performed using a GE® Sytec Sri Helical Scanner (Milwaukee, Wis.) and the images were stored as DICOM3 on GE® optical and CD-Rom medium. The CT imaging parameters for these studies were 1 mm consecutive slices at 120 kvp at 1.5 sec, 200 mA. All scans were done with a standard phantom placed beneath the animal. All CT scans performed were of the entire animal (rostral nasal area to pelvis). Contrast attenuation was measured in Hounsfield units (HU) and expressed as percent (%) uptake, taking into account the calibration from the phantom. The iodine concentration and iodine uptake were estimated post-injection from vascular, lung and liver tissues.

[1] = Rabbit No. 1151 (infusion), 0 min
[2] = Rabbit No. 1151 (infusion), 5 min
[3] = Rabbit No. 1151 (infusion), 15 min
[4] = Rabbit No. 1151 (infusion), 60 min
[5] = Rabbit No. 1151 (infusion), 480 min
[6] = Rabbit No. 1151, infusion 3 mL/5 min IV (150 mg/kg), 0 min post injection
[7] = Rabbit No. 1151, infusion 3 mL/5 min IV (150 mg/kg), 5 min post injection
[8] = Rabbit No. 1151, infusion 3 mL/5 min IV (150 mg/kg), 15 min post injection
[9] = Rabbit No. 1151, infusion 3 mL/5 min IV (150 mg/kg), 60 min post injection
[10] = Rabbit No. 1151, infusion 3 mL/5 min IV (150 mg/kg), 480 min post injection
[11] = Rabbit No. 1156 (bolus), 15 min
[12] = Rabbit No. 1156 (bolus), 60 min
[13] = Rabbit No. 1156 (bolus), 480 min
[14] = Rabbit No. 1156, bolus injection 1 mL IV (50 mg/kg), 0 min post injection
[15] = Rabbit No. 1156, bolus injection 1 mL IV (50 mg/kg), 5 min post injection
[16] = Rabbit No. 1156, bolus injection 1 mL IV (50 mg/kg), 15 min post injection
[17] = Rabbit No. 1156, bolus injection 1 mL IV (50 mg/kg), 60 min post injection
[18] = Rabbit No. 1156, bolus injection 1 mL IV (50 mg/kg), 480 min post injection
[19] = Rabbit No. 1159, bolus injection 1 mL IV (50 mg/kg), 15 min post injection
[20] = Rabbit No. 1159, bolus injection 1 mL IV (50 mg/kg), 60 min post injection
[21] = Rabbit No. 1159, bolus injection 1 mL IV (50 mg/kg), 480 min post injection
[22] = Rabbit No. 1166, infusion 3 mL/5 min IV (150 mg/kg), 15 min post injection
[23] = Rabbit No. 1166, infusion 3 mL/5 min IV (150 mg/kg), 60 min post injection
[24] = Rabbit No. 1166, infusion 3 mL/5 min IV (150 mg/kg), 480 min post injection

CCOC(=O)CCCCCOC(=O)c1c(I)c(NC(C)=O)c(I)c(NC(C)=O)c1I [PH-50, 6-ethoxy-6-oxohexy-3,5-bis(acetylamino)-2,4,6-triiodobenzoate]
Percent Uptake (%) Aorta [1]: 44% | Percent Uptake (%) Brain [1]: 2% | Percent Uptake (%) Cardiac [1]: 33% | Percent Uptake (%) Liver [1]: 8% | Percent Uptake (%) Portal Vein [1]: 48% | Percent Uptake (%) Posterior Vena Cava [1]: 54% | Percent Uptake (%) Aorta [2]: 14% | Percent Uptake (%) Brain [2]: 17% | Percent Uptake (%) Cardiac [2]: 61% | Percent Uptake (%) Liver [2]: 32% | Percent Uptake (%) Portal Vein [2]: 91% | Percent Uptake (%) Posterior Vena Cava [2]: 44% | Percent Uptake (%) Aorta [3]: 37% | Percent Uptake (%) Brain [3]: 6% | Percent Uptake (%) Cardiac [3]: 4% | Percent Uptake (%) Liver [3]: 29% | Percent Uptake (%) Portal Vein [3]: 56% | Percent Uptake (%) Posterior Vena Cava [3]: 0% | Percent Uptake (%) Aorta [4]: 39% | Percent Uptake (%) Brain [4]: 14% | Percent Uptake (%) Cardiac [4]: 6% | Percent Uptake (%) Liver [4]: 21% | Percent Uptake (%) Portal Vein [4]: −5% | Percent Uptake (%) Posterior Vena Cava [4]: −43% | Percent Uptake (%) Aorta [5]: −62% | Percent Uptake (%) Brain [5]: 90.1% | Percent Uptake (%) Cardiac [5]: 0% | Percent Uptake (%) Liver [5]: −19% | Percent Uptake (%) Portal Vein [5]: 7% | Percent Uptake (%) Posterior Vena Cava [5]: −21% | Hounsfield Units (HU) Aorta [6]: 49.08 HU | Hounsfield Units (HU) Brain [6]: 44.89 HU | Hounsfield Units (HU) Cardiac [6]: 48.32 HU | Hounsfield Units (HU) Liver [6]: 93.08 HU | Hounsfield Units (HU) Portal Vein [6]: 54.03 HU | Hounsfield Units (HU) Posterior Vena Cava [6]: 73.00 HU | Hounsfield Units (HU) Aorta [7]: 38.85 HU | Hounsfield Units (HU) Brain [7]: 51.38 HU | Hounsfield Units (HU) Cardiac [7]: 58.67 HU | Hounsfield Units (HU) Liver [7]: 113.68 HU | Hounsfield Units (HU) Portal Vein [7]: 69.54 HU | Hounsfield Units (HU) Posterior Vena Cava [7]: 68.54 HU | Hounsfield Units (HU) Aorta [8]: 46.77 HU | Hounsfield Units (HU) Brain [8]: 46.75 HU | Hounsfield Units (HU) Cardiac [8]: 37.81 HU | Hounsfield Units (HU) Liver [8]: 111.22 HU | Hounsfield Units (HU) Portal Vein [8]: 56.85 HU | Hounsfield Units (HU) Posterior Vena Cava [8]: 47.46 HU | Hounsfield Units (HU) Aorta [9]: 47.62 HU | Hounsfield Units (HU) Brain [9]: 50.38 HU | Hounsfield Units (HU) Cardiac [9]: 38.49 HU | Hounsfield Units (HU) Liver [9]: 104.26 HU | Hounsfield Units (HU) Portal Vein [9]: 34.46 HU | Hounsfield Units (HU) Posterior Vena Cava [9]: 27.00 HU | Hounsfield Units (HU) Aorta [10]: 13.00 HU | Hounsfield Units (HU) Brain [10]: 34.37 HU | Hounsfield Units (HU) Cardiac [10]: 36.35 HU | Hounsfield Units (HU) Liver [10]: 69.57 HU | Hounsfield Units (HU) Portal Vein [10]: 38.81 HU | Hounsfield Units (HU) Posterior Vena Cava [10]: 37.72 HU | Percent Uptake (%) Aorta (Rabbit No. 1156 (bolus), 0 min): 317.0% | Percent Uptake (%) Brain (Rabbit No. 1156 (bolus), 0 min): −8% | Percent Uptake (%) Cardiac (Rabbit No. 1156 (bolus), 0 min): 38% | Percent Uptake (%) Liver (Rabbit No. 1156 (bolus), 0 min): 13% | Percent Uptake (%) Portal Vein (Rabbit No. 1156 (bolus), 0 min): 24% | Percent Uptake (%) Posterior Vena Cava (Rabbit No. 1156 (bolus), 0 min): 168.0% | Percent Uptake (%) Aorta (Rabbit No. 1156 (bolus), 5 min): 118% | Percent Uptake (%) Brain (Rabbit No. 1156 (bolus), 5 min): −15% | Percent Uptake (%) Cardiac (Rabbit No. 1156 (bolus), 5 min): 15% | Percent Uptake (%) Liver (Rabbit No. 1156 (bolus), 5 min): 26% | Percent Uptake (%) Portal Vein (Rabbit No. 1156 (bolus), 5 min): 38% | Percent Uptake (%) Posterior Vena Cava (Rabbit No. 1156 (bolus), 5 min): 253% | Percent Uptake (%) Aorta [11]: 162% | Percent Uptake (%) Brain [11]: −8% | Percent Uptake (%) Cardiac [11]: 12% | Percent Uptake (%) Liver [11]: 22% | Percent Uptake (%) Portal Vein [11]: 90% | Percent Uptake (%) Posterior Vena Cava [11]: 112% | Percent Uptake (%) Aorta [12]: 63% | Percent Uptake (%) Brain [12]: −3% | Percent Uptake (%) Cardiac [12]: 18% | Percent Uptake (%) Liver [12]: 19% | Percent Uptake (%) Portal Vein [12]: 108% | Percent Uptake (%) Posterior Vena Cava [12]: 33% | Percent Uptake (%) Aorta [13]: 23% | Percent Uptake (%) Brain [13]: −3% | Percent Uptake (%) Cardiac [13]: 4% | Percent Uptake (%) Liver [13]: −12% | Percent Uptake (%) Portal Vein [13]: −5% | Percent Uptake (%) Posterior Vena Cava [13]: 91% | Hounsfield Units (HU) Aorta [14]: 65.00 HU | Hounsfield Units (HU) Brain [14]: 29.00 HU | Hounsfield Units (HU) Cardiac [14]: 54.00 HU | Hounsfield Units (HU) Liver [14]: 85.00 HU | Hounsfield Units (HU) Portal Vein [14]: 52.00 HU | Hounsfield Units (HU) Posterior Vena Cava [14]: 51.00 HU | Hounsfield Units (HU) Aorta [15]: 34.00 HU | Hounsfield Units (HU) Brain [15]: 27.00 HU | Hounsfield Units (HU) Cardiac [15]: 45.00 HU | Hounsfield Units (HU) Liver [15]: 95.32 HU | Hounsfield Units (HU) Portal Vein [15]: 58.08 HU | Hounsfield Units (HU) Posterior Vena Cava [15]: 67.00 HU | Hounsfield Units (HU) Aorta [16]: 40.85 HU | Hounsfield Units (HU) Brain [16]: 29.03 HU | Hounsfield Units (HU) Cardiac [16]: 44.02 HU | Hounsfield Units (HU) Liver [16]: 91.73 HU | Hounsfield Units (HU) Portal Vein [16]: 79.65 HU | Hounsfield Units (HU) Posterior Vena Cava [16]: 40.31 HU | Hounsfield Units (HU) Aorta [17]: 25.38 HU | Hounsfield Units (HU) Brain [17]: 30.57 HU | Hounsfield Units (HU) Cardiac [17]: 46.52 HU | Hounsfield Units (HU) Liver [17]: 89.56 HU | Hounsfield Units (HU) Portal Vein [17]: 87.37 HU | Hounsfield Units (HU) Posterior Vena Cava [17]: 25.31 HU | Hounsfield Units (HU) Aorta [18]: 19.20 HU | Hounsfield Units (HU) Brain [18]: 30.50 HU | Hounsfield Units (HU) Cardiac [18]: 40.65 HU | Hounsfield Units (HU) Liver [18]: 66.15 HU | Hounsfield Units (HU) Portal Vein [18]: 39.73 HU | Hounsfield Units (HU) Posterior Vena Cava [18]: 36.24 HU | Hounsfield Units (HU) Aorta [19]: 43.80 HU | Hounsfield Units (HU) Brain [19]: 32.30 HU | Hounsfield Units (HU) Cardiac [19]: 30.13 HU | Hounsfield Units (HU) Liver [19]: 87.08 HU | Hounsfield Units (HU) Portal Vein [19]: 53.54 HU | Hounsfield Units (HU) Posterior Vena Cava [19]: 52.17 HU | Hounsfield Units (HU) Aorta [20]: 43.83 HU | Hounsfield Units (HU) Brain [20]: 34.39 HU | Hounsfield Units (HU) Cardiac [20]: 44.96 HU | Hounsfield Units (HU) Liver [20]: 94.17 HU | Hounsfield Units (HU) Portal Vein [20]: 89.92 HU | Hounsfield Units (HU) Posterior Vena Cava [20]: 65.48 HU | Hounsfield Units (HU) Aorta [21]: 21.00 HU | Hounsfield Units (HU) Brain [21]: 31.00 HU | Hounsfield Units (HU) Cardiac [21]: 33.73 HU | Hounsfield Units (HU) Liver [21]: 76.24 HU | Hounsfield Units (HU) Portal Vein [21]: 39.15 HU | Hounsfield Units (HU) Posterior Vena Cava [21]: 25.36 HU | Hounsfield Units (HU) Aorta [22]: 20.82 HU | Hounsfield Units (HU) Brain [22]: 27.15 HU | Hounsfield Units (HU) Cardiac [22]: 47.51 HU | Hounsfield Units (HU) Liver [22]: 117.99 HU | Hounsfield Units (HU) Portal Vein [22]: 63.85 HU | Hounsfield Units (HU) Posterior Vena Cava [22]: 43.09 HU | Hounsfield Units (HU) Aorta [23]: 23.08 HU | Hounsfield Units (HU) Brain [23]: 34.85 HU | Hounsfield Units (HU) Cardiac [23]: 37.66 HU | Hounsfield Units (HU) Liver [23]: 108.39 HU | Hounsfield Units (HU) Portal Vein [23]: 59.87 HU | Hounsfield Units (HU) Posterior Vena Cava [23]: 25.08 HU | Hounsfield Units (HU) Aorta [24]: 14.30 HU | Hounsfield Units (HU) Brain [24]: 38.90 HU | Hounsfield Units (HU) Cardiac [24]: 35.31 HU | Hounsfield Units (HU) Liver [24]: 63.20 HU | Hounsfield Units (HU) Portal Vein [24]: 42.92 HU | Hounsfield Units (HU) Posterior Vena Cava [24]: 39.35 HU | adverse reactions to the compound (normal rabbits, 1 mL bolus or 3 mL/5 min infusion IV): no adverse reactions | Hounsfield units in the liver post-injection (normal rabbits, CT): dramatic increase
